Patent US6403805B1 (Janssen Pharmaceutica N.V., priority 1995, dated 2002)

Legend:
[1] = test system: dextran-induced oedema formation in mouse ear; experiment: Dextran-induced oedema formation in mouse ear; format: in vivo, Male Swiss mice; conditions: vs background blueing value; for inhibition in vivo at 5 mg/kg / inhibition in vivo at 2.5 mg/kg: Mus musculus, 1 h, read-out: % inhibition of the extravasation of the dye
Experimental: Dextran-induced oedema formation in mouse ear Systemic injection of dextran T500 in normal, non-sensitized mice elicits increased vascular permeability, leading to extravasation and oedema of the extremities. When dextran is injected together with a blue dye, blueing of the ears is the most prominent feature of oedematous response. Male Swiss mice weighting 24-26 g were orally pretreated with the test compound dissolved in PEG-200 at different concentrations or solvent. One hour later, the mice were given an intravenous injection with an isotonic saline solution containing 12 mg/ml dextran T500 and 2.6 mg/ml pontamine sky-blue dye, in a volume of 0.1 ml per 10 g body weight. One hour and forty-five minutes later, the animals are sacrificed by ether and their ears removed. Extraction and quantification of the extravasated dye is done as described by Van Wauwe and Goossens (Drug Dev. Res. 1986, 8, 213-218). The extravasation of the dye is characterized by the blueing value which is defined as the concentration of the extracted dye in both ears. The background blueing value was determined once as the mean blueing value obtained by injecting a group of mice with a saline solution containing only dextran T500 and the blue dye. Table 6 lists the percentage inhibition of the extravasation of the dye when compared with the background extravasation of the dye when the test compound was administered at a dose of 5 mg/kg. The test compounds indicated by an asterisk (*) were tested at a dose of 2.5 mg/kg

[2] = target: T1, recombinant human MNL phosphodiesterase type IV B (Homo sapiens, UniProt Q07343); experiment: Inhibition of recombinant human mononuclear lymphocyte (MNL) phosphodiesterase type IV B produced in insect cells with a baculovirus vector; format: biochemical; conditions: recombinant human MNL PDE IV B; 0.8 μM 3H-cAMP, pH 8, 37° C.; calculated graphically
T1 construct: made in house; host or cells: insect cells infected with recombinant baculovirus
T1 sequence (Q07343 whole entry): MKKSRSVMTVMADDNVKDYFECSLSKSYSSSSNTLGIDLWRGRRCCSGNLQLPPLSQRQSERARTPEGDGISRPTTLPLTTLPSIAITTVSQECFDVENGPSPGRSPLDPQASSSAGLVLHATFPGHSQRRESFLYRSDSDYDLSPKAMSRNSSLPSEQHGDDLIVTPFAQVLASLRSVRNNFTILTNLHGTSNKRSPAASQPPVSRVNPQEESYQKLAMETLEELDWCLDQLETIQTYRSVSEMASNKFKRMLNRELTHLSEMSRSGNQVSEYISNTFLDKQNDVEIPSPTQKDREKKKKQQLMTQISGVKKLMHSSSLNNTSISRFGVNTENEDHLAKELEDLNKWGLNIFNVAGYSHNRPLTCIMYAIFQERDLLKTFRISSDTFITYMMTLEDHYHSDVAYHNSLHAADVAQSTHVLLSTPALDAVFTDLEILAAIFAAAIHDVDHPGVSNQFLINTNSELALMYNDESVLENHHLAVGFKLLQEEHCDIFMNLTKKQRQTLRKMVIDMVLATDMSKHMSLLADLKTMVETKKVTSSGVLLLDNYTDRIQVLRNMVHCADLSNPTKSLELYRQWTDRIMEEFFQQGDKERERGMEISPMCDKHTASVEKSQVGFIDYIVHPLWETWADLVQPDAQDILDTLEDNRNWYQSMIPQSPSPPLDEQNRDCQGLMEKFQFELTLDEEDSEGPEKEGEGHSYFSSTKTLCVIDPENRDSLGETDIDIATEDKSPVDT
Experimental: Inhibition of recombinant human mononuclear lymphoctye (MNL) phosphodiesterase type IV B produced in insect cells with a baculovirus vector
The alleviating and/or curing effect of the instant compounds on allergic and atopic diseases was assessed by an in vitro assay system to detect an inhibiting effect on the recombinant human MNL phosphodiesterase type IV B.
Seventy-two hours after infection with recombinant baculovirus, the insect cells were harvested and pelleted at 500 g for 5 minutes. The cells were lysed in 10 ml lysis-buffer consisting of 20 mM Tris, 10 mM EGTA, 2 mM Na2EDTA, 1% Triton-X-100, 1 mM Na3VO4, 10 mM NaF, 2 μg/ml of leupeptine, pepstatine and aprotinine, 0.3 μg/ml benzamidine and 100 μg/ml TPCK pH 7.5. After 5 minutes on ice, solubilized cells were centrifuged at 4000 rpm for 15 minutes at 4° C. The resulting supernatant was filtered through a 0.45 μm filter (Millipore) and brought to TBS buffer (50 mM Tris, 150 mM NaCl pH 7.4).
After washing the column with equilibration buffer, PDE IV was eluted in 1.5 ml fractions containing 37.5 μl 1M Tris pH 8. The fractions were dialyzed overnight against 20 mM Tris, 2 mM Na2EDTA and 400 mM NaCl pH 7.5 and tested for PDE IV activity. Identification was done on SDS PAGE and Western Blot (anti-FLAG-M2). Active fractions were pooled, brought to 10% glycerol and stored at −70° C.
The incubation mixture (pH 8) (200 μl) contained 20 mM Tris, 10 mM magnesium sulphate, 0.8 μM ^3H-cAMP (310 mCi/mmole) and the phosphodiesterase type IV, the amount depending on the enzymatic activity.
When the effect of different compounds on phosphodiesterase activity was tested, the medium without cAMP was incubated with the compound(s) or its carrier (DMSO-1% final concentration) for 5 min. The enzymatic reaction was started by addition of ^3H-cAMP and stopped 10 min later after transferring the microtiter-plate in a waterbath at 100° C. for 5 min. After cooling to room temperature, alkaline phosphatase (0.25 μg/ml) was added and the mixture was incubated at 37° C. for 20 min. 100 μl of the mixture was subsequently applied to a GF-B filter-microtiter-plate (Millipore) filled with 300 μl DEAE-Sephadex-A25 suspension. The plate was washed 3 times with 75 μl 20 mM Tris pH 7.5 and the filtrates were collected for counting in the Packard Top Count scintillation counter.
The inhibiting effect of the present compounds on recombinant human MNL phosphodiesterase PDE IV B was measured at different concentrations of the instant compounds. The IC50 values (expressed in M) were calculated graphically from the thus obtained inhibition values.

[3] = oral dose of 5 mg/kg in PEG-200, one hour before i.v. dextran T500/pontamine sky-blue
[4] = asterisk (*): oral dose of 2.5 mg/kg in PEG-200, one hour before i.v. dextran T500/pontamine sky-blue
[5] = oral dose of 5 mg/kg in PEG-200, one hour before i.v. dextran T500/pontamine sky-blue, 5 mg/kg

Molecule | IC50 [2] [µM] | inhibition in vivo at 5 mg/kg [1, 3] [%] | also measured
COc1ccc(CCCn2cc[nH]c2=O)cc1OC [Compound 85, 1,3-dihydro-1-[3-(3,4-dimethoxyphenyl)propyl]-2H-imidazol-2-one] | – | 31.6 | –
COc1ccc(C(C)Cn2cc[nH]c2=O)cc1OCC1CC1 (stereo not shown) [Compound 22, (A)-1-[2-[3-(cyclopropylmethoxy)-4-methoxyphenyl]propyl]-1,3-dihydro-2H-imidazol-2-one] | 0.045 | 83.5 | –
COc1ccc(C(C)Cn2cc[nH]c2=O)cc1OC1CCCC1 (racemic) [Compound 1, (±)-1-[2-[3-(cyclopentyloxy)-4-methoxyphenyl]propyl]-1,3-dihydro-2H-imidazol-2-one] | 0.0048 | 83.1 | –
O=c1[nH]ccn1CC(F)c1ccc(OC(F)F)c(OCC2CC2)c1 (racemic) [Compound 20, (±)-1-[2-[3-(cyclopropylmethoxy)-4-(difluoromethoxy)phenyl-2-fluoroethyl]-1,3-dihydro-2H-imidazol-2-one] | – | – | % inhibition of the extravasation of the dye [1, 4]: 94.4%
COc1ccc(C(C)Cn2cc[nH]c2=O)cc1OCC1CC1 (racemic) [Compound 10, (±)-1-[2-[3-(cyclopropylmethoxy)-4-methoxyphenyl]propyl]-1,3-dihydro-2H-imidazol-2-one] | < 0.01 | 91.9 | –
COc1ccc(C(C)Cn2cc[nH]c2=O)cc1OC1CCOC1 (stereo not shown) [Compound 29] | 0.24 | – | inhibition in vivo at 2.5 mg/kg [1, 4]: 90.7%
COc1ccc(C(CN2CCNC2=O)NC(C)=O)cc1OC (racemic) [Compound 16, (±)-N-[1-(3,4-dimethoxyphenyl)[2-(2-oxo-1-imidazolidinyl)-ethyl]acetamide] | – | – | % inhibition of the extravasation of the dye [1, 3]: 10.8%
1,3-dihydro-1-[2-(3,4-dimethoxyphenyl)ethyl]-2-methyl-3H-imidazol-2-one [Compound 86] | 1.8 | – | % inhibition of the extravasation of the dye [1, 3]: 39.0%
COc1ccc(C(O)(Cn2cc[nH]c2=O)c2ccccc2)cc1OC1CCCC1 (racemic) [Compound 8, (±)-1-[2-[3-(cyclopentyloxy)-4-methoxyphenyl]-2-hydroxy-2-phenylethyl]-1,3-dihydro-2H-imidazol-2-one] | 1.9 | 12.4 | –
COc1ccc(C(O)Cn2cc[nH]c2=O)cc1O (racemic) [Compound 19, (±)-1,3-dihydro-1-[2-hydroxy-2-(3-hydroxy-4-methoxyphenyl)ethyl]-2H-imidazol-2-one] | – | – | inhibition in vivo at 2.5 mg/kg [1, 4]: 49.4%
COc1ccc(C(N)CN2CCN(Cc3ccccc3)C2=O)cc1OC (racemic) [Compound 11, (±)-1-[2-amino-2-(3,4-dimethoxyphenyl)ethyl]-3-(phenylmethyl)-2-imidazolidinone] | – | 26.8 | –
COc1ccc(C(C)Cn2cc[nH]c2=O)cc1OCC1CC1 (stereo not shown) [Compound 23, (B)-1-[2-[3-(cyclopropylmethoxy)-4-methoxyphenyl]propyl]-1,3-dihydro-2H-imidazol-2-one] | – | – | % inhibition of the extravasation of the dye [1, 3]: 72.1%
COc1ccc(C(C)Cn2cc[nH]c2=O)cc1OC1CCCC1 (stereo not shown) [Compound 7, (B)-1-[2-[3-(cyclopentyloxy)-4-methoxyphenyl]propyl]-1,3-dihydro-2H-imidazol-2-one] | 0.043 | – | % inhibition of the extravasation of the dye [1, 5]: 67.0%
COc1cc(Br)c(CCn2cc[nH]c2=O)cc1OC [Compound 81, 1,3-dihydro-2-[2-(2-bromo-4,5-dimethoxyphenyl)ethyl]-2H-imidazol-2-one] | – | – | % inhibition of the extravasation of the dye [1, 3]: 34.1%
CCOC(=O)Cn1ccn(C(C)c2ccc(OC)c(OC3CCCC3)c2)c1=O (racemic) [Compound 9, (±)-ethyl 3-[1-[3-(cyclopentyloxy)-4-methoxy-phenyl]ethyl]-2,3-dihydro-2-oxo-1H-imidazole-1-acetate] | – | 10.2 | –
COc1ccc(Cn2cc[nH]c2=O)cc1OC [Compound 84, 1,3-dihydro-1-[(3,4-dimethoxyphenyl)methyl]-2H-imidazol-2-one] | – | 46.5 | –
COc1ccc(C(O)CN2CCNC2=O)cc1OC (racemic) [Compound 13, ±)-1-[2-(3,4-dimethoxyphenyl)-2-hydroxy-ethyl]-2-imidazolidinone] | – | – | % inhibition of the extravasation of the dye [1, 3]: 36.3%
COc1ccc(C(C)Cn2cc[nH]c2=O)cc1OC1CCCC1 (stereo not shown) [Compound 6, (A)-1-[2-[3-(cyclopentyloxy)-4-methoxy-phenyl]propyl]-1,3-dihydro-2H-imidazol-2-one] | 0.0041 | – | % inhibition of the extravasation of the dye [1, 5]: 85.1%

Further lines, with some results ahead:

IC50 [2] [µM] | Molecule | inhibition in vivo at 5 mg/kg [1, 3] [%] | also measured
0.02 | CC(Cn1cc[nH]c1=O)c1ccc(OC(F)F)c(OC(F)F)c1 (stereo not shown) [Compound 38] | 76.6 | –
0.15 | COc1ccc(C(C)Cn2cc[nH]c2=O)cc1OC (stereo not shown) [Compound 76, 1,3-dihydro-1-[2-(3,4-dimethoxyphenyl)propyl]-2H-imidazol-2-one] | 69 | –
0.46 | CCOc1ccc(CCn2cc[nH]c2=O)cc1OCC [Compound 82] | 28.2 | –
2.3 | COc1ccc(C(C)Cn2cc[nH]c2=O)cc1OCC1CCCO1 (stereo not shown) [Compound 33] | 65.8 | –
7.3 | COc1ccc(C(C)Cn2c(C)c[nH]c2=O)cc1OC (stereo not shown) [Compound 77, 1,3-dihydro-1-[2-(3,4-dimethoxyphenyl)propyl]-5-methyl-2H-imidazol-2-one] | 35.8 | –
0.19 | CC(Cn1cc[nH]c1=O)c1ccc(OC(F)F)c(OCc2ccccc2)c1 (stereo not shown) [Compound 34] | 31.1 | –
0.0007 | CC(Cn1ccnc1O)c1ccc(OC(F)F)c(OC2CCCC2)c1 (stereo not shown) [Compound 37] | 75.7 | –
0.14 | COc1ccc(C(C)Cn2cc[nH]c2=O)cc1OCC1CCCC1 (stereo not shown) [Compound 32] | 76.2 | –
3.2 | COc1ccc(C(C)CN2CCNC2=O)cc1OC (stereo not shown) [Compound 80, 1-[2-(3,4-dimethoxyphenyl)propyl]-1,3,4,5-tetrahydro-2H-imidazol-2-one] | 53.4 | –
0.18 | COc1ccc(CCn2cc[nH]c2=O)cc1OC1CCOC1 (stereo not shown) [Compound 35] | 90.1 | –
0.77 | COc1ccc(CCn2cc[nH]c2=O)cc1OC [Compound 79, 1,3-dihydro-1-[2-(3,4-dimethoxyphenyl)ethyl]-2H-imidazol-2-one] | 61.6 | –
2.7 | COc1ccc(C(Cn2cc[nH]c2=O)OC)cc1OC (stereo not shown) [Compound 83, 1,3-dihydro-1-[2-(3,4-dimethoxyphenyl)-2-methoxy-ethyl]-2H-imidazol-2-one] | 18.6 | –
9 | COc1ccc(CCN2CCNC2=O)cc1OC [Compound 78, 1-[2-(3,4-dimethoxyphenyl)ethyl]-1,3,4,5-tetrahydro-2H-imidazol-2-one] | 31.3 | –
